Structures are written as SMILES. Bounds are passed on as bounds.

`COc1ccccc1NC(=O)Nc1ccc(C2CCN(C(=O)Nc3ccc(OCCO)cc3Cl)CC2)cc1`: the melting point lay in the range of 166 to 168 °C.

On to `COCCn1cc2c(C3C(=O)Nc4ccc(Br)cc43)nc(NCCC3CCCNC3)nc2n1` (stereo unspecified), for which the melting point lay in the range of 270 to 273 °C.

In the case of `CCOC(=O)CCCn1ccnc1CSc1ccc(N)cc1`, the melting point was 74 to 75 °C.

`NC(=O)c1c(Cl)c(-c2ccccc2)n2c1CN(S(=O)(=O)Nc1ccccc1)CC2` had a melting point of 207 to 208 °C.

The compound `N#Cc1ccc(-c2c[nH]nc2C(F)(F)F)cc1SCC1CCC1` yielded a melting point of 102 to 103 °C.

`COc1ccc(N2CCN(c3ccc(-n4cnn(CC(F)(F)F)c4=O)cc3)CC2)cc1` returned a melting point of 208 °C.

On to `CC(C)(C)OC(=O)c1ccc(C=Cc2ccc(C(=O)OC(C)(C)C)cc2)cc1`, for which the melting point lay within 126 to 127 °C.

Regarding `CC(C)N(C(=O)c1ccc(OCCCCCOc2ccc(C(N)=NO)cc2)cc1)C(C)C`, the melting point lay within 146 to 149 °C.

As to `Cn1c(SCC(=O)C23CC4CC(CC(C4)C2)C3)nnc1-c1cccs1`, the melting point was in the range of 156 to 157 °C.

The compound `CC(C)N(Cc1ccc(COc2cccc3c2CN(C2CCC(=O)NC2=O)C3=O)cc1)C(C)C` (stereo unspecified) yielded a melting point of 201 to 203 °C.

Turning to `Cc1cc(NS(=O)(=O)c2cccs2)c2[nH]c(C3=NCCS3)cc2c1`, the melting point fell in the range of 202 to 203 °C.

`CC(COc1ccc2ccc(Oc3c(F)cc(C(F)(F)F)cc3Cl)cc2c1)=NO` had a melting point of 153 °C.

In the case of `CN(C)CCNC1=CC(=O)c2nc(-c3ccccc3Br)oc2C1=O`, the melting point is 147 to 148 °C.

`CCOC(=O)COC(=O)c1c(I)c(NC(C)=O)c(I)c(NC(C)=O)c1I` gave a melting point of 270 °C.

In the case of `CCCCCCCCCCCCCCCCOc1ccc(OCC(=O)NCc2ccccn2)cc1`, the melting point is 68 to 69 °C.

Turning to `CCCCCCNC(C)=C1C(=O)OC(=O)C(C(C)=O)=C1O`, the melting point lay in the range of 80 to 82 °C.

On to `C[C@]1(CN2CCN(Nc3ccc(C(F)(F)F)cc3)CC2)Cn2cc([N+](=O)[O-])nc2O1`, for which the melting point fell in the range of 192 to 195 °C.

As for `O=C(Nc1ccc(NC(=O)OCCCl)c([N+](=O)[O-])n1)OCCCl`, the melting point fell in the range of 118 to 119 °C.

In turn, `COC(=O)c1ccc(OCC2CC(=O)N(c3ccc(OCCO)cc3)C2)cc1` (stereo unspecified) displayed a melting point of 129 to 131 °C.

`CCC(O)(CC)c1cc(C)c(-c2cc(OCc3ccc(CO)c(CO)c3)ccc2C)c(C)c1` registered a melting point of 128 °C.

As to `COc1cccc(CCc2c(CC(=O)NC(C)C)ccc(OC)c2OC)c1`, the melting point is 138 to 140 °C.

In turn, `O=C(O)C1CCC(=O)N1Cc1cccc(F)c1` (stereo unspecified) returned a melting point of 114 to 116 °C.

Take `CCNC(=O)N(CCO)Cc1cc([N+](=O)[O-])ccc1OC`: the melting point fell in the range of 93 to 94 °C.

`NCCSc1ccc(CCC(=O)O)cc1`: the melting point lay in the range of 90 to 110 °C.

For the compound `CC1COC(=O)N1c1cc(-c2ncnc(Nc3cccc(Cl)c3)n2)ccn1` (stereo unspecified), the melting point is 191 to 193 °C.

Consider `CN1C(=O)C=C[C@]2(C)c3ccc(-c4cccc([N+](=O)[O-])c4)cc3CC[C@@H]12`, for which the melting point is 175 to 177 °C.

With `COc1cc(CCCC2OC(=O)NC2=O)ccc1OCc1csc(/C=C/c2ccccc2)n1` (stereo unspecified), the melting point was 202 to 203 °C.

The compound `Cc1cc(OCc2oc(-c3ccc(C(F)(F)F)cc3)nc2C)ccc1/C=C/C(=O)O` came in with a melting point of 155 to 165 °C.

As to `CC(C)n1nc(-c2c(NC3CC3)nc(N)nc2-c2ccccc2)ccc1=O`, the melting point lay within 237 to 239 °C.

Turning to `COC(=O)c1[nH]c2c(C)ccc(C)c2c1SC`, the melting point fell in the range of 82 to 85 °C.

`NS(=O)(=O)c1ccc(NN=C2C(=O)Nc3ccc(C(=O)NCc4ccco4)cc32)cc1`: the melting point is more than 250 °C.

`O=C(O)CCCN(C(=O)c1cccc(C(F)(F)F)c1)c1ccccc1-c1ccccc1` showed a melting point of 156 to 157 °C.

The compound `COc1ccc2c(c1)CCC1C2CCC2(C)C(O)CCC12` (stereo unspecified) came in with a melting point of 121 to 124 °C.

Compound `COc1cc(C(=O)c2ccc(OCc3ccccc3)cc2N)cc(OC)c1OC` showed a melting point of 79 to 80 °C.

With `COCCOc1cc2ncnc(NC3=CC(=O)C(Oc4cccnc4)=CC3=O)c2cc1OC`, the melting point was in the range of 189 to 190 °C.

As to `CCOC=NC1=C(C#N)C(c2ccc(F)c(Cl)c2)c2ccc3ccccc3c2O1` (stereo unspecified), the melting point fell in the range of 146 to 148 °C.

The compound `O=C(O)C1=Cc2cc(Cl)cc(COCc3ccccc3)c2OC1C(F)(F)F` (stereo unspecified) returned a melting point of 134 to 135 °C.

On to `Cc1ccc2nc(-c3ccc(C=O)cc3)cn2c1`, for which the melting point lay in the range of 210 to 211 °C.

The compound `CC(C)NCCCOc1ccc(O)cc1` came in with a melting point of 92 to 100 °C.

Turning to `O=C1c2ccccc2C(=O)N1CCCSC1N=CC=CN1NC(=S)NCC(F)(F)F` (stereo unspecified), the melting point fell in the range of 214 to 215 °C.

In turn, `O=C(Cl)c1ccc2ccccc2c1O` gave a melting point of 87 to 88 °C.

For the compound `CCCC(=O)Nc1ccn(C2OC(CO)C(O)C2O)c(=O)n1` (stereo unspecified), the melting point was 108 to 110 °C.

Compound `CCOC(=O)CNC(=O)Nc1ccc(C#N)cc1` showed a melting point of 140 to 144 °C.

Consider `COc1ccccc1Oc1c(N)nc(N2CCOCC2)nc1OCCO`, for which the melting point lay in the range of 136 to 138 °C.

`O=C1CCC2=C(CCc3c(F)cccc32)N1` had a melting point of 233 to 234 °C.

On to `Cc1c(OCC(F)(F)F)ccnc1CSc1nc2cc(N3CCCCC3)c(F)cc2[nH]1`, for which the melting point lay in the range of 160 to 161 °C.

Consider `COc1ccc(-c2csc(N)n2)cc1`, for which the melting point fell in the range of 194 to 205 °C.

With `O=[N+]([O-])c1cccnc1Nc1ccc(F)cc1F`, the melting point worked out at 110 °C.

On to `OCC1=CCOc2ccc(Cl)cc21`, for which the melting point lay within 85 to 88 °C.

`O=C(O)C(=O)N1CCC(Cc2ccccc2)CC1` came in with a melting point of 109 to 112 °C.

For the compound `FC(F)(F)c1ccc(-c2cc(C(F)(F)F)n3ncc(I)c3c2)cc1`, the melting point stood at 130 °C.

Turning to `O=C1Cc2ccc(-c3ccccc3)cc2N1`, the melting point was 173 to 175 °C.

The compound `CCCCCCCS(=O)(=O)c1nn2c(=O)c(C)c(F)nc2s1` came in with a melting point of 143 to 146 °C.

Compound `Oc1c(Cl)cc(NCCCCCCBr)cc1Cl` came in with a melting point of 182 to 183 °C.

The compound `O=C(O)CC1CCCc2c1n(Cc1ccc(Cl)cc1)c1c(F)cc(F)cc21` (stereo unspecified) registered a melting point of 130 to 131 °C.

As for `CN=C1N(c2c(C)cccc2C)CCN1c1c(C)cccc1C`, the melting point lay within 180 to 181 °C.

Compound `CC(C)(C#N)Cc1cccc(-c2cccc(CC(C)(C)C#N)c2)c1` returned a melting point of 96 to 103 °C.

Turning to `CCNCC1Cc2cc(F)cc(-c3c(Cl)cccc3Cl)c2O1` (stereo unspecified), the melting point was 138 °C.

The compound `CCOC(=O)C(C)(C)Oc1ccc(OCCn2c(=O)sc3cc(C(=NOC)c4cccc(Cl)c4)ccc32)cc1` yielded a melting point of 93 to 98 °C.

On to `CCCNc1ccc2nc(NC(=O)c3ccc(C(C)(C)C)cc3)cn2n1`, for which the melting point lay in the range of 243 to 244 °C.

With `CN(CCN=C(NC#N)NCCSCc1csc(NC(=N)N)n1)CCC(c1ccccc1)c1ccccn1` (stereo unspecified), the melting point lay in the range of 115 to 116 °C.

Compound `CCCCCCCCCCCCCCCCCCOc1ccc(NC(=O)OC(C)(C)C)cc1` showed a melting point of 66 to 67 °C.

Consider `NS(=O)(=O)CCNC(=O)OCc1ccccc1`, for which the melting point was in the range of 107 to 109 °C.

`O=C(NCCc1ccc([N+](=O)[O-])cc1)Nc1ccc(Nc2ccccc2)cc1` returned a melting point of 204 to 205 °C.

In turn, `O=C(N[C@H](Cc1cccc(C(F)(F)F)c1)[C@@H](O)c1ccc(F)cc1)c1cccc2ccccc12` (racemic) displayed a melting point of 158 to 159 °C.

`Cc1c(NC(=O)c2ccc(-c3ccc(F)cc3)cc2)ccc2cc(C(C)N3CCCCC3)cnc12` (stereo unspecified): the melting point was 168 to 170 °C.

In the case of `O=C(Cl)C=CC=Cc1ccccc1`, the melting point lay within 51 to 52 °C.

`O=C(CCCCSc1ccc(O)cc1)N1CCOCC1` yielded a melting point of 112 to 113 °C.

Compound `CCOC(=O)n1cc(C=O)c(-c2ccc([N+](=O)[O-])o2)n1` yielded a melting point of 140 to 141 °C.

`CCN1C(=O)NC(c2ccc3ccccc3c2)c2cc3c(cc21)OCO3` (stereo unspecified) yielded a melting point of 193 to 195 °C.

With `O=C(O)C(Cc1ccccc1F)Cc1ccccc1F`, the melting point is 110 to 111 °C.

`OC(CNc1ccc2ncnn2n1)CN1CCC(OC(c2ccccc2)c2ccccc2)CC1` (stereo unspecified) showed a melting point of 82 to 87 °C.

`CC(=O)Nc1ccc(CCN(C)C)c2cn[nH]c12` registered a melting point of 223 °C.

`OCc1cc(I)cc(I)c1` registered a melting point of 136 to 140 °C.

In the case of `COC(=O)c1nc(N2CCCC2)ccc1O`, the melting point lay within 82.5 to 84 °C.

In turn, `COC(=O)CNc1cccc(CF)c1` came in with a melting point of 47 to 47.5 °C.

In turn, `O=C(Nc1ccc(F)cc1)c1cccc([N+](=O)[O-])c1` registered a melting point of 167 to 168 °C.

With `CN(CCc1ccc(N)cc1)C1Cc2ccc(N)cc2C1` (stereo unspecified), the melting point fell in the range of 112 to 114 °C.

Turning to `O=c1ccn2c(n1)CN=C(c1ccccc1)c1cc(Cl)ccc1-2`, the melting point lay within 208 to 209 °C.

With `CCn1c(=O)c(-c2ccsc2)cc2cnc(Nc3ccccc3)nc21`, the melting point lay within 223 to 225 °C.

`CNc1ncc(CO)c(NC2CC2)n1` returned a melting point of 139 to 140 °C.

`Cc1oc2c(C)c(C)c(N3Cc4ccccc4C3)c(C)c2c1-c1ccc(C(C)C)cc1` registered a melting point of 126 to 129 °C.

`N#CSc1cnn(-c2nc(F)c(C(F)(F)F)cc2Cl)c1N` came in with a melting point of 109 to 114 °C.

`Cc1c(Nc2c(C#N)cnc3sc(C(=O)O)cc23)ccc2[nH]ccc12`: the melting point was 287 °C.

For `COc1ccc2c(c1)c1c(n2C)C(=O)NCCO1`, the melting point fell in the range of 184 to 186 °C.

`CC1(c2ccccc2)OC(C(=O)O)Oc2ccccc21` (stereo unspecified) came in with a melting point of 153 °C.

In turn, `OCC1OC(n2cnc3c(NC4C=CCC4O)ncnc32)C(O)C1O` (stereo unspecified) gave a melting point of 212 to 214 °C.

Consider `CCOC(=O)c1cc(O)c(C(=O)c2ccc(Cl)cc2)c([N+](=O)[O-])c1`, for which the melting point lay in the range of 188 to 192 °C.

In turn, `Cc1cc(Oc2c(Cl)cc(C(F)(F)F)cc2Cl)nn1C(N)=O` showed a melting point of 152 to 154 °C.

Turning to `COC(=O)C1C=CCN2C(=O)C(CCOS(C)(=O)=O)(Cc3ccccc3)C(=O)N12` (stereo unspecified), the melting point is 161 to 163 °C.

In turn, `CN(C)C1(c2ccccc2)CCC2(OCCc3c2[nH]c2ccc(F)cc32)C(F)C1` (stereo unspecified) had a melting point of 237 to 242 °C.

Broadly, the melting point is the temperature, or range, at which the solid turns liquid.

(Values after a melting point compilation (Tetko et al.; mined from patent text by program, amines drawn as free bases though some values may be those of a salt).)
